Results as given in paper PMC5267425, “Identification of small molecule modulators of HIV-1 Tat and Rev protein accumulation” (Retrovirology, 2017).
pIC50: −log10 of the molar value.

Assays:
HIV-1 BaL = HIV-1 BaL replication in PBMCs, p24 antigen ELISA; assay type: cell-based; conditions: for pIC50: Human immunodeficiency virus 1, BAL, PBMC
Description: (§1) To examine the effect of compounds on viral replication, studies were carried out in peripheral blood mononuclear cells (PBMCs). PBMCs were isolated from healthy (HIV-uninfected) volunteer blood donors as described by Dobson-Belaire et al.. Informed consent was obtained from participants in accordance with the guidelines for conduct of clinical research at the University of Toronto and St. Michael’s Hospital, Toronto, Ontario, Canada. Stored PBMCs were thawed, washed with RPMI 1640 complete medium and cultured in RPMI 1640 complete medium containing 2 μg/mL of PHA-L (Sigma-Aldrich) and 20 U/mL of IL-2 (BD Pharmingen) for 72 h. Subsequently, cells were counted and a portion of the cells was separated to another tube for uninfected control treatments. The remaining PBMCs were resuspended in media containing HIV-1 BaL at a multiplicity of infection (MOI) of approximately 0.01 and infected by spinoculation, following which cells were washed twice with room temperature RPMI 1640 complete medium and resuspended to a concentration of 5 × 10^5 cells/mL in complete RPMI 1640 containing 20 U/mL of IL-2. Compounds were added to infected PBMCs or uninfected control PBMCs. Azidothymidine (AZT, Sigma-Aldrich) was used as control treatment at a final concentration of 3.74 μM. On day 4 post infection, culture medium was replenished with the compounds and IL-2 in fresh complete RPMI 1640. On days 2, 4, 6 and 8 post infection, culture supernatant was harvested, virus lysed by adjusting to 1% TritonX-100 and stored at −20 °C for p24 antigen ELISA. A fraction of the culture was harvested to assess percent cell viability by trypan blue exclusion using Glasstic slides (Kova). Relative percent cell viability in compound treated samples versus DMSO-control treated samples was calculated as follows: (total viable cells/total cells)compound/(total viable cells/total cells)DMSO.
ELISA for p24 Gag antigen was performed on cell supernatants using kits purchased from Frederick National Laboratory for Cancer Research (Leidos) or XpressBio extended range kit and performed according to manufacturer’s instructions. Protein concentration in cell lysates was quantified by Bradford assay and equal amounts of protein run on 7, 10, 12, or 14% SDS-PAGE, depending on the protein of interest. Following transfer to PVDF (BioRad or Perkin-Elmer), blots were blocked in either 5% Milk-PBS-T (5% Milk, 0.05% Tween-20, 1× PBS) or 3% BSA-PBS-T (3% BSA, 0.05% Tween-20, 1× PBS) prior to incubating with primary antibody (all diluted in 3% BSA-PBS-T). […] Quantification of the relative intensity of the detected bands was done using ImageLab software and normalized to corresponding bands of the loading control (GAPDH or α-Tubulin).

[1] = Trypan blue exclusion, PBMCs; assay type: cell-based, human; conditions: human, peripheral blood mononuclear cells (PBMCs)
Description: as §1

Nap1 = assay: Western blot of Nap1; assay type: cell-based; conditions: 791 30 µM, 833 2 µM, 892 15 µM, 24 h
Description: ELISA for p24 Gag antigen was performed on cell supernatants using kits purchased from Frederick National Laboratory for Cancer Research (Leidos) or XpressBio extended range kit and performed according to manufacturer’s instructions. Protein concentration in cell lysates was quantified by Bradford assay and equal amounts of protein run on 7, 10, 12, or 14% SDS-PAGE, depending on the protein of interest. Following transfer to PVDF (BioRad or Perkin-Elmer), blots were blocked in either 5% Milk-PBS-T (5% Milk, 0.05% Tween-20, 1× PBS) or 3% BSA-PBS-T (3% BSA, 0.05% Tween-20, 1× PBS) prior to incubating with primary antibody (all diluted in 3% BSA-PBS-T). Primary antibodies used were: purified mouse anti-p24 supernatant from anti-HIV-1 Gag hybridoma 183, mouse anti-gp120 hybridoma 902 (NIH AIDS Reagent Program), mouse monoclonal antibody to HIV-1 Rev (Abcam), rabbit polyclonal antibody to HIV-1 Tat (Abcam), mouse monoclonal antibody to p53 (Santa Cruz), rabbit purified IgG for Nap1 (provided by L. Frappier), rabbit polyclonal antibody to GAPDH (Sigma-Aldrich), or mouse monoclonal antibody to α-Tubulin (Sigma-Aldrich). Following incubation with appropriate secondary antibody, blots were visualized by ECL, ECL Plus (Perkin-Elmer), or Clarity Western ECL substrate (BioRad). Quantification of the relative intensity of the detected bands was done using ImageLab software and normalized to corresponding bands of the loading control (GAPDH or α-Tubulin).

Structure (SMILES)	pIC50 (HIV-1 BaL)	doses inhibiting HIV-1 virus production that did not affect cell viability (HIV-1 BaL; PBMCs, 2–4 donors) [µM]	CC50 [1] [nM]	viability at 6 days post infection ([1]; PBMCs, 6 days post infection, concentrations up to 7.5 µM, read-out: cell viability) [%]	reduction of Nap1 expression (Nap1)
Cc1cc(NCc2cccnc2)n2ncc(-c3ccc(Cl)cc3)c2n1 [Compound 791, 3-(4-chlorophenyl)-5-methyl-N-(3-pyridinylmethyl)pyrazolo[1,5-a]pyrimidin-7-amine]	5.82	< 5	> 10000	> 80	approximately 50%
O=C(NC(=S)NNC(=O)c1ccccc1O)c1ccc(-c2ccccc2)cc1 [Compound 833, N-([2-(2-hydroxybenzoyl)hydrazino]carbonothioyl}-4-biphenylcarboxamide]	5.80		3000		more variable
COc1ccc(C=NNC(=O)c2ccccc2O)cc1O [Compound 892, 2-hydroxy-N′-(3-hydroxy-4-methoxybenzylidene)benzohydrazide]	5.70		4500		no effect
